How the values were obtained:
Mus musculus [1] = assay: Cmax in apoE deficient C57BL/6J mouse at 20 ug, ip; format: ADME, organism-based; set-up: dose 20 ug, route intraperitoneal; settings: in vivo, at 20 µg
[2] = Elimination half life in apoE deficient C57BL/6J mouse at 20 ug, ip; format: ADME, organism-based; settings: in vivo
Mus musculus [3] = assay: Antiinflammatory activity in apoE deficient C57BL/6J mouse assessed as inhibition of atherosclerosis lesion area at 20 ug/day, ip administered for 4 weeks measured after 6 weeks; format: functional
[4] = Time to Cmax in apoE deficient C57BL/6J mouse at 20 ug, ip; format: ADME, organism-based; settings: in vivo

Row | Structure (SMILES) | Cmax (Mus musculus [1]) | half-life [2] | Activity (Mus musculus [3]) | Tmax [4]
1 | CC(C)C[C@H](NC(=O)[C@H](Cc1c[nH]c2ccccc12)NC(=O)[C@H](CC(=O)O)NC([14CH3])=O)C(=O)N[C@@H](CCCCN)C(=O)N[C@@H](C)C(=O)N[C@@H](Cc1ccccc1)C(=O)N[C@@H](Cc1ccc(O)cc1)C(=O)N[C@@H](CC(=O)O)C(=O)N[C@@H](CCCCN)C(=O)N[C@H](C(=O)N[C@@H](C)C(=O)N[C@@H](CCC(=O)O)C(=O)N[C@@H](CCCCN)C(=O)N[C@@H](Cc1ccccc1)C(=O)N[C@@H](CCCCN)C(=O)N[C@@H](CCC(=O)O)C(=O)N[C@@H](C)C(=O)N[C@@H](Cc1ccccc1)C(N)=O)C(C)C | 12.29% | 126 min | 20400 um2 | 28.8 min
2 | CC(C)C[C@H](NC(=O)[C@H](Cc1ccccc1)NC(=O)[C@H](CCC(=O)O)NC(=O)[C@H](CCCCN)NC(=O)[C@H](Cc1ccccc1)NC(=O)[C@H](C)NC(=O)[C@H](CCC(=O)O)NC(=O)[C@H](C)NC(=O)[C@H](Cc1ccccc1)NC(=O)[C@H](CCCCN)NC(=O)[C@H](CC(=O)O)NC(=O)[C@H](Cc1ccc(O)cc1)NC(=O)[C@@H](NC(=O)[C@H](C)NC(=O)[C@H](CCCCN)NC(=O)[C@H](Cc1c[nH]c2ccccc12)NC(=O)[C@H](CCCCN)NC(=O)[C@H](CC(=O)O)NC([14CH3])=O)C(C)C)C(N)=O | 5.52% | 32.4 min | 15800 um2 | 16.8 min

Reference: ChEMBL document CHEMBL1156421, “ApoA-I mimetic peptides with differing ability to inhibit atherosclerosis also exhibit differences in their interactions with membrane bilayers” (J Biol Chem, 2007)
